{
  "source": "patent US7642258B2",
  "about": "(Allergan, Inc., priority 2002, dated 2010)",
  "key": {"[1]": {"experiment": "Clinical study: quantitation of plasma brimonidine and timolol concentrations", "assay_type": "in vivo, patients", "settings": "for concentration at 1 h: human, plasma, other: ophthalmic solution, 1 hour postdose, read-out: mean±SD plasma timolol concentration"}, "[2]": {"tested_on": "patients with glaucoma or ocular hypertension", "experiment": "Clinical study: safety (adverse events, heart rate, blood pressure, visual acuity)", "assay_type": "in vivo"}, "[3]": {"tested_on": "patients with glaucoma or ocular hypertension", "experiment": "Clinical study: intraocular pressure (IOP) lowering, multicenter double-masked randomized parallel-group", "assay_type": "in vivo", "settings": "range over week 2, week 6 and month 3 (hours 0, 2, 7, 9)", "experimental": "IOP (hours 0, 2, 7, and 9), patient satisfaction questionnaire, patient comfort of study medication questionnaire, pharmacoeconomic evaluation by investigator\nAll data were summarized with descriptive statistics, frequency tables, and/or data listings. Safety analyses included all patients who received at least 1 dose of study medication. Analyses were performed for the primary efficacy variable IOP using the intent-to-treat (ITT) population with last observation carried forward (LOCF), and the per protocol population with observed cases.\nContinuous variables (eg, IOP) were analyzed using analysis of variance (ANOVA). Within-group changes from baseline for continuous variables were analyzed using paired t-tests.\nA 2-way ANOVA model with factors for treatment and investigator was used for the analysis of IOP. Comparisons were made between the Combination and each of the 2 monotherapies in a pairwise fashion using contrasts from the ANOVA model, with the same error term. A separate ANOVA model was employed at each hour/visit measurement of IOP. […] Point estimates of the mean treatment differences, as well as 2-sided 95% confidence intervals (CI) of the difference, were provided at each timepoint."}},
  "note": "Read-outs that look alike come from different tables or passages of the source.",
  "data": [
    {"smiles": "CC(C)(C)NC[C@H](O)COc1nsnc1N1CCOCC1.O=C(O)/C=C\\C(=O)O", "note": "[Timolol]", "values": [
      {"measurement": "concentration at 1 h", "setting": "[1]; month 3", "value": "0.873 ± 0.516", "unit": "ng/mL"},
      {"measurement": "concentration at 1 h", "setting": "[1]; week 2", "value": "0.95 ± 0.709", "unit": "ng/mL"},
      {"measurement": "plasma timolol concentration in males lower than in females", "setting": "[1]; month 3", "value": 39, "unit": "%"},
      {"measurement": "plasma timolol concentration in males lower than in females", "setting": "[1]; week 2", "value": 45, "unit": "%"},
      {"measurement": "Serious adverse events reported", "setting": "[2]; % of patients", "value": 2.0, "unit": "%"},
      {"measurement": "discontinuation of patients due to adverse events", "setting": "[2]; % of patients", "value": 3.0, "unit": "%"},
      {"measurement": "allergic conjunctivitis, % of patients", "setting": "[2]; adverse event through month 3", "value": "(0.0%)"},
      {"measurement": "allergic conjunctivitis, number of patients", "setting": "[2]; adverse event through month 3", "value": 0},
      {"measurement": "asthenia, % of patients", "setting": "[2]; adverse event through month 3", "value": "(0.5%)"},
      {"measurement": "asthenia, number of patients", "setting": "[2]; adverse event through month 3", "value": 1},
      {"measurement": "burning sensation in eye, % of patients", "setting": "[2]; adverse event through month 3", "value": "(12.7%)"},
      {"measurement": "burning sensation in eye, number of patients", "setting": "[2]; adverse event through month 3", "value": 25},
      {"measurement": "conjunctival folliculosis, % of patients", "setting": "[2]; adverse event through month 3", "value": "(0.5%)"},
      {"measurement": "conjunctival folliculosis, number of patients", "setting": "[2]; adverse event through month 3", "value": 1},
      {"measurement": "conjunctival hyperemia, % of patients", "setting": "[2]; adverse event through month 3", "value": "(5.6%)"},
      {"measurement": "conjunctival hyperemia, number of patients", "setting": "[2]; adverse event through month 3", "value": 11},
      {"measurement": "epiphora, % of patients", "setting": "[2]; adverse event through month 3", "value": "(1.5%)"},
      {"measurement": "epiphora, number of patients", "setting": "[2]; adverse event through month 3", "value": 3},
      {"measurement": "eye pruritus, % of patients", "setting": "[2]; adverse event through month 3", "value": "(1.5%)"},
      {"measurement": "eye pruritus, number of patients", "setting": "[2]; adverse event through month 3", "value": 3},
      {"measurement": "foreign body sensation, % of patients", "setting": "[2]; adverse event through month 3", "value": "(2.5%)"},
      {"measurement": "foreign body sensation, number of patients", "setting": "[2]; adverse event through month 3", "value": 5},
      {"measurement": "infection (body as a whole), % of patients", "setting": "[2]; adverse event through month 3", "value": "(4.1%)"},
      {"measurement": "infection (body as a whole), number of patients", "setting": "[2]; adverse event through month 3", "value": 8},
      {"measurement": "oral dryness, % of patients", "setting": "[2]; adverse event through month 3", "value": "(0.5%)"},
      {"measurement": "oral dryness, number of patients", "setting": "[2]; adverse event through month 3", "value": 1},
      {"measurement": "somnolence, % of patients", "setting": "[2]; adverse event through month 3", "value": "(0.0%)"},
      {"measurement": "somnolence, number of patients", "setting": "[2]; adverse event through month 3", "value": 0},
      {"measurement": "stinging sensation eye, % of patients", "setting": "[2]; adverse event through month 3", "value": "(5.6%)"},
      {"measurement": "stinging sensation eye, number of patients", "setting": "[2]; adverse event through month 3", "value": 11},
      {"measurement": "visual disturbance, % of patients", "setting": "[2]; adverse event through month 3", "value": "(1.5%)"},
      {"measurement": "visual disturbance, number of patients", "setting": "[2]; adverse event through month 3", "value": 3},
      {"measurement": "incidence of eye discharge", "setting": "[2]; through month 3", "value": 0, "unit": "%"},
      {"measurement": "patients who experienced one or more adverse events, regardless of causality", "setting": "[2]; through month 3", "value": 50.8, "unit": "%"},
      {"measurement": "Mean changes from baseline diurnal IOP", "setting": "[3]", "value": "−4.5 to −6.4", "unit": "mm Hg"},
      {"measurement": "Mean values of diurnal IOP", "setting": "[3]", "value": "17.5 to 18.9", "unit": "mm Hg"}
    ]},
    {"smiles": "Brc1c(N=C2NCCN2)ccc2nccnc12.O=C(O)C(O)C(O)C(=O)O", "note": "[Brimonidine, 5-Bromo-6-(2-imidazolidinylideneamino)quinoxaline L-tartrate]", "values": [
      {"measurement": "Mean changes from baseline diurnal IOP", "setting": "[3]", "value": "−3.5 to −5.7", "unit": "mm Hg"},
      {"measurement": "Mean values of diurnal IOP", "setting": "[3]", "value": "17.4 to 21.5", "unit": "mm Hg"}
    ]}
  ]
}
